Measurements: PubChem BioAssay (NCI)
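Five concentrations, 48 hours, 96-well plates. The concentration for 50% growth inhibition is given as GI50. TGI marks complete inhibition of growth.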

Assays:
Assay in all cases: DTP human tumour cell line panel, 48 h
[1] = system: HT29 colon
[2] = system: ACHN renal
[3] = system: SF-295 CNS
[4] = system: DU-145 prostate
[5] = system: SW-620 colon
[6] = system: UACC-62 melanoma
[7] = system: SN12C renal
[8] = system: NCI-H522 lung
[9] = system: OVCAR-5 ovarian
[10] = system: OVCAR-8 ovarian
[11] = system: SR leukemia
[12] = system: HCT-116 colon
[13] = system: IGROV1 ovarian
[14] = system: M14 melanoma
[15] = system: SK-MEL-5 melanoma
[16] = system: 786-0 renal
[17] = system: NCI/ADR-RES ovarian
[18] = system: HS 578T breast
[19] = system: COLO 205 colon
[20] = system: SK-MEL-2 melanoma
[21] = system: UO-31 renal
[22] = system: NCI-H460 lung
[23] = system: CAKI-1 renal
[24] = system: A498 renal
[25] = system: MOLT-4 leukemia
[26] = system: RPMI-8226 leukemia
[27] = system: CCRF-CEM leukemia
[28] = system: A549 NSCLC
[29] = system: NCI-H226 lung
[30] = system: UACC-257 melanoma
[31] = system: SNB-75 CNS
[32] = system: OVCAR-4 ovarian
[33] = system: HCT-15 colon
[34] = system: BT-549 breast
[35] = system: K-562 leukemia
[36] = system: OVCAR-3 ovarian
[37] = system: U251 CNS
[38] = system: SF-268 CNS
[39] = system: PC-3 prostate
[40] = system: SF-539 CNS
[41] = system: MDA-MB-231 breast
[42] = system: HL-60(TB) leukemia
[43] = system: MDA-MB-435
[44] = system: LOX IMVI melanoma
[45] = system: RXF 393 renal
[46] = system: EKVX NSCLC
[47] = system: SNB-19 CNS
[48] = system: KM12 colon
[49] = system: TK-10 renal
[50] = system: NCI-H23 lung
[51] = system: MCF7 breast
[52] = system: SK-MEL-28 melanoma

COc1ccc(C#CC2=C(Br)C(=O)OC2)cc1
GI50 [1]: 2.42 µM
TGI [1]: 10.5 µM
GI50 [2]: 3.56 µM
TGI [2]: 13.2 µM
GI50 [3]: 10.5 µM
TGI [3]: 29.1 µM
GI50 [4]: 5.44 µM
TGI [4]: 11.4 µM
GI50 [5]: 1.23 µM
TGI [5]: 4.54 µM
GI50 [6]: 6.48 µM
TGI [6]: 12.8 µM
GI50 [7]: 8.83 µM
TGI [7]: 16.9 µM
GI50 [8]: 25.8 µM
TGI [8]: > 50 µM
GI50 [9]: 14.7 µM
TGI [9]: 28.8 µM
GI50 [10]: 9.47 µM
TGI [10]: 39 µM
GI50 [11]: 2.63 µM
TGI [11]: > 50 µM
GI50 [12]: 1.4 µM
TGI [12]: 35.7 µM
GI50 [13]: 26.8 µM
TGI [13]: > 50 µM
GI50 [14]: 10.5 µM
TGI [14]: 34 µM
GI50 [15]: 7.58 µM
TGI [15]: 14.3 µM
GI50 [16]: 21.5 µM
TGI [16]: > 50 µM
GI50 [17]: 12 µM
TGI [17]: 33.6 µM
GI50 [18]: 7.43 µM
TGI [18]: 28.2 µM
GI50 [19]: 2.56 µM
TGI [19]: 29.1 µM
GI50 [20]: 23 µM
TGI [20]: > 50 µM
GI50 [21]: 16.9 µM
TGI [21]: > 50 µM
GI50 [22]: 10 µM
TGI [22]: > 50 µM
GI50 [23]: 1.76 µM
TGI [23]: 6.61 µM
GI50 [24]: 0.873 µM
TGI [24]: 12 µM
GI50 [25]: 4.44 µM
TGI [25]: > 50 µM
GI50 [26]: 2.14 µM
TGI [26]: > 50 µM
GI50 [27]: 3.98 µM
TGI [27]: > 50 µM
GI50 [28]: 9.43 µM
TGI [28]: 28.6 µM
GI50 [29]: 13.3 µM
TGI [29]: 34.6 µM
GI50 [30]: 11.9 µM
TGI [30]: 26.4 µM
GI50 [31]: 1.29 µM
TGI [31]: 16.6 µM
GI50 [32]: 2.46 µM
TGI [32]: 11.4 µM
GI50 [33]: 2.63 µM
TGI [33]: 11.3 µM
GI50 [34]: 8.32 µM
TGI [34]: 18.3 µM
GI50 [35]: 4.77 µM
TGI [35]: > 50 µM
GI50 [36]: 1.61 µM
TGI [36]: 7 µM
GI50 [37]: 1.75 µM
TGI [37]: 6.48 µM
GI50 [38]: 16.9 µM
TGI [38]: > 50 µM
GI50 [39]: 11.6 µM
TGI [39]: 29.8 µM
GI50 [40]: 5.15 µM
TGI [40]: 16.8 µM
GI50 [41]: 9.48 µM
TGI [41]: 27.6 µM
GI50 [42]: 5.32 µM
TGI [42]: > 50 µM
GI50 [43]: 9.94 µM
TGI [43]: 27.3 µM
GI50 [44]: 6.42 µM
TGI [44]: 14 µM
GI50 [45]: 7.06 µM
TGI [45]: 17.4 µM
GI50 [46]: 6.9 µM
TGI [46]: 17 µM
GI50 [47]: 12 µM
TGI [47]: > 50 µM
GI50 [48]: 3.05 µM
TGI [48]: 11 µM
GI50 [49]: 1.94 µM
TGI [49]: 16.2 µM
GI50 [50]: 10.6 µM
TGI [50]: 25.3 µM
GI50 [51]: 2.47 µM
TGI [51]: > 50 µM
GI50 [52]: 5.54 µM
TGI [52]: 23.3 µM
